According to patent US8309550B2, “Kinase inhibitors and their use as pharmaceutical agents” (Shanghai Genomics, Inc., priority 2011, dated 2012):
Like-named read-outs stand apart in the source and are kept apart here.

Assays:
[1] = target: T1, CDK1/cyclinB (Homo sapiens, UniProt P06493); test: Z'-LYTE kinase assay CDK1/cyclinB; assay type: biochemical
T1 construct: purchased Invitrogen PV3292
Summary of the method: (§1)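 Z′-LYTE FRET assay with recombinant human enzymes; CDK1/cyclinB and CDK5/p35 at 0.8 ng/reaction on Ser/Thr 12 peptide. Compound and kinase incubated 1 hr at room temperature in 20 μM ATP, HEPES pH 7.5, MgCl2, EGTA, Brij-35, then developed 1 hr. Phosphorylation derived from 445/520 nm emission ratio (400 nm excitation); IC50 from sigmoid curve fit.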

[2] = target: T2, CDK2/cyclinA (Homo sapiens, UniProt P24941); test: Z'-LYTE kinase assay CDK2/cyclinA; assay type: biochemical
T2 construct: purchased Invitrogen PV3267
Summary of the method: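 Recombinant human CDK2/cyclinA (Invitrogen PV3267) at 8 ng/reaction was incubated with Z′-LYTE™ Ser/Thr 12 Peptide and ATP in 384-well plates holding diluted test compounds for 1 hr at room temperature. Buffer contained 20 μM ATP, HEPES pH 7.5, 5 mM MgCl2, 0.5 mM EGTA and 0.005% Brij-35. IC50 came from sigmoid curve fitting in Origin 6.0.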

[3] = target: T3, CDK5/p35 (Homo sapiens, UniProt Q00535); test: Z'-LYTE kinase assay CDK5/p35; assay type: biochemical
T3 construct: purchased Invitrogen PV3000
T3 sequence (Q00535 whole entry): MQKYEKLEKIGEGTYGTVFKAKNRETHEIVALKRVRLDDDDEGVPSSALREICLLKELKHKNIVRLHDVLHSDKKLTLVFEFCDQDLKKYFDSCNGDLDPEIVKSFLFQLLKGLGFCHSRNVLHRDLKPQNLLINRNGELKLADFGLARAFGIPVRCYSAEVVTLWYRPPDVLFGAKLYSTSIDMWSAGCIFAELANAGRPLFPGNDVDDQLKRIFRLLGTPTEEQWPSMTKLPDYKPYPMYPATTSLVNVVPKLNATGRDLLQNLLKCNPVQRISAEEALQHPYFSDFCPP
T3 sequence (Q15078 whole entry partner): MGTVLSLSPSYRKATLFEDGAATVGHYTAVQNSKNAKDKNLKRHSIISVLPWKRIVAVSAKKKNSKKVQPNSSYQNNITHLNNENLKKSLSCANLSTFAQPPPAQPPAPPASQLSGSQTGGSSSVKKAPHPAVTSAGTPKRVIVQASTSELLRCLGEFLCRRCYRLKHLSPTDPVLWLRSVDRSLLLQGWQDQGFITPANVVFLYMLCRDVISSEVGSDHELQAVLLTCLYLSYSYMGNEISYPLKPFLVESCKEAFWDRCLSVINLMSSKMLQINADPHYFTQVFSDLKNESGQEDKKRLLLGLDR
Summary of the method: as §1

[4] = target: T4, Aurora A (Homo sapiens, UniProt O14965); test: Z'-LYTE kinase assay Aurora A; assay type: biochemical
T4 construct: purchased Invitrogen PV3612
T4 sequence (O14965 1-403): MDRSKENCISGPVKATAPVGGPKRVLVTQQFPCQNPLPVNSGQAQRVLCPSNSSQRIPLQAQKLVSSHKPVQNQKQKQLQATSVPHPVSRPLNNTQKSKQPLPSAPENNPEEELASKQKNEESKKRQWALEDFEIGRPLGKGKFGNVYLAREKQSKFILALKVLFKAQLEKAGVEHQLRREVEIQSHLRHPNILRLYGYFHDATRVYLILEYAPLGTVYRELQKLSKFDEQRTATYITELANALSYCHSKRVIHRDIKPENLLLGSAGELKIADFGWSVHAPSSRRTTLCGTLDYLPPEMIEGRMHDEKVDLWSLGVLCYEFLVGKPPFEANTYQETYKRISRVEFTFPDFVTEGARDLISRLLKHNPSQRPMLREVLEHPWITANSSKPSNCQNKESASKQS
Summary of the method: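 Recombinant human Aurora A (PV3612, Invitrogen) was assayed with a Z′-LYTE™ kinase kit at 16 ng/reaction using Ser/Thr 1 Peptide substrate. Enzyme, peptide and ATP were added to 384-well plates with diluted compounds and incubated 1 hr at room temperature in buffer containing 20 μM ATP, HEPES pH 7.5, 5 mM MgCl2, 0.5 mM EGTA and 0.005% Brij-35.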

[5] = target: Aurora B (Homo sapiens, UniProt Q96GD4); test: Kinase assay Aurora B (Table I); assay type: biochemical
Aurora B, sequence (Q96GD4 whole entry): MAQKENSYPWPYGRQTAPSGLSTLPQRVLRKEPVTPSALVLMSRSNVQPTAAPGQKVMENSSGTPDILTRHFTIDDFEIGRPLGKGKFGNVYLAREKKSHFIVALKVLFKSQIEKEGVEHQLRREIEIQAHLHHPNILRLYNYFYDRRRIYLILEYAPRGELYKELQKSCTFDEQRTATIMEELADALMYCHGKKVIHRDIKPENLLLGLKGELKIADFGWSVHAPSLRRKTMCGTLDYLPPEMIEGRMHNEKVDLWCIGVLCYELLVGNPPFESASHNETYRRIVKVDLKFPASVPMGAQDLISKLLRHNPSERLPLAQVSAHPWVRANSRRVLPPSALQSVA

[6] = system: H460-luc; test: 72 h MTT cytotoxicity assay H460-luc; assay type: cell-based; conditions: Homo sapiens
Source text: (§2) MIT cytotoxicity assay. The compounds of the invention were subjected to a standard cellular proliferation assay using human cell lines. HeLa cells (Human cervix adenocarcinoma cell line, ATCC NO, CCL-2); A549 cells (Human lung carcinoma cells line, ATCC NO, CCL-185); U2OS cells (Human osteosarcoma cell line, ATCC NO, HTB-96); Eca-109 cells (Human esophageal carcinoma cell line); HepG2 (Human hepatocellular liver carcinoma cell line, ATCC NO, HB-8065); K562 cells (Human chronic myelogenous leukemia cell line, ATCC NO, CCL-243); SK-MEL-28 (Human malignant melanoma cell line, ATCC NO, HTB-72); Molt-4 (Human acute lymphoblastic leukemia cell line, ATCC NO, CRL-1582); H460 (Human large cell lung cancer cell line, ATCC NO, HTB-177); MDA-MB-231 (Human breast adenocarcinoma cell line, ATCC NO, HTB-26); MCF7 (Human breast adenocarcinoma cell line, ATCC NO, HTB-22); ACHN (Human renal cell adenocarcinoma cell line, ATCC NO, CRL-1611); PC-3M (Human prostate adenocarcinoma cell line, ATCC NO CRL-1435); HL60 (Human acute promyelocytic leukemia cell line, ATCC NO, CCL-240); THP-1 (Human acute monocytic leukemia, ATCC NO, TIB-202); Jurkat (Human acute T cell leukemia cell line, ATCC NO, CRL-2063); HCT-116 (Human colorectal carcinoma cell line, ATCC NO, CCL-247); HT-29 (Human colorectal adenocarcinoma cell line, ATCC NO, HTB-38™); WI-38 (Human normal lung cell line, ATCC NO, CCL-75); MRC-5 (Human normal lung cell line, ATCC NO, CCL-171).
(§3) HepG2, MDA-MB-231, WI-38 and MRC-5 cells were obtained from Shanghai Institute of Cell Biology, Chinese Academy of Sciences (Shanghai 200031, China). A549, HeLa, K562, MCF7, ACHN, H460, U2OS, Eca-109, MCF7, HL60, THP-1, Jurkat, HCT-116, HT-29, PC-3M, SK-MEL-28, Molt-4, H460 and […] cells were purchased from ATCC (American Type Culture Collection, USA).
(§4) Standard 72 h MTT (thiazolye blue; 3-[4,5-dimethylthiazol-2-yl]-2,5-diphenyltetrazolium bromide) assays were performed. Briefly, the cell lines used in this study were recovered and cultured according to the conditions recommended. 4000 cells per well were seeded into 96-well plates according to doubling time and incubated overnight at 37° C. Compounds were prepared in DMSO and a ½ dilution series in 100 μl cell culture media, added to cells (in duplicates) with the final DMSO concentration of 0.025%, and incubated for 72 hrs at 37° C. MTT solution (5 mg/ml) was added at 10 μl per well and incubated in the dark at 37° C. for 4 hr. Culture medium and MTT solution was removed. MTT dye was solubilised with 100 μl per well of DMSO with agitation. Absorbance was read at 562 nm and data analyzed using Sigmoid curve-fitting software Origin 6.0 (MicroCal, LLC, USA) to determine IC50 value.

[7] = system: PC-3M-luc; test: 72 h MTT cell viability PC-3M-luc; assay type: cell-based; conditions: Homo sapiens
Source text: as §2, §3, §4

[8] = Table III, read-out: Target biochemical activity IC50 CDK1
[9] = Table III, read-out: Target biochemical activity IC50 CDK2
[10] = Table III, read-out: Target biochemical activity IC50 CDK5
[11] = Table III, read-out: Target biochemical activity IC50 Aurora A
[12] = Table III, read-out: Target biochemical activity IC50 Aurora B
[13] = H460, Table III, read-out: Cellular effect in mammalian cells IC50 H460
[14] = read-out: Kinase inhibition, IC50 CDK1B
[15] = read-out: Kinase inhibition, IC50 CDK2A
[16] = read-out: Kinase inhibition, IC50 CDK5/p35
[17] = read-out: Kinase inhibition, IC50 Aurora A
[18] = read-out: Kinase inhibition, IC50 Aurora B
[19] = NCI-H460-Luc, H460-luc, 72 hrs, read-out: Cytotoxicity, MTT 72 hrs, IC50 H460-luc

T1 sequence (P06493 whole entry): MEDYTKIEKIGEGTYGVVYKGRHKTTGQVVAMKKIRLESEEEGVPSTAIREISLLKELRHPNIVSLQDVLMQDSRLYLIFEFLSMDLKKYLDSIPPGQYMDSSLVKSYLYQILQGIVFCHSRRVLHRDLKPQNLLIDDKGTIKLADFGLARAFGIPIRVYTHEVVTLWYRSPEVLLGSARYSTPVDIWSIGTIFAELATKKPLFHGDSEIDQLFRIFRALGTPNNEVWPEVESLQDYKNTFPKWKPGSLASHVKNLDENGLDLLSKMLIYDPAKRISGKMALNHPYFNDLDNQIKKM
T1 sequence (P14635 whole entry partner): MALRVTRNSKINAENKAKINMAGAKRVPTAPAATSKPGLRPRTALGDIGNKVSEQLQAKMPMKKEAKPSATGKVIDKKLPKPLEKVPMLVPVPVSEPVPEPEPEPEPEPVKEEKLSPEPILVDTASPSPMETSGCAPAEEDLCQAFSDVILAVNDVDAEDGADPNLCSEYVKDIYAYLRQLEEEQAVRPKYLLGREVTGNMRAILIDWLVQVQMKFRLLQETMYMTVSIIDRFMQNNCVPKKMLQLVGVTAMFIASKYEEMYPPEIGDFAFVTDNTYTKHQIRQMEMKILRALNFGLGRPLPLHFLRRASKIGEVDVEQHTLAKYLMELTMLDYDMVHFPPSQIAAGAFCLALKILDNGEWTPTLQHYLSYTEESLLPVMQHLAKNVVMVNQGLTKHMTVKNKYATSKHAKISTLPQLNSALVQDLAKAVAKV

SMILES	IC50 [1, 8] [µM]	IC50 [2, 9] [µM]	IC50 [3, 10] [µM]	IC50 [4, 11] [µM]	IC50 [5, 12] [µM]	IC50 [6, 13] [µM]	IC50 [1, 14] [µM]	IC50 [2, 15] [µM]	IC50 [3, 16] [µM]	IC50 [4, 17] [µM]	IC50 [5, 18] [µM]	IC50 [6, 19] [µM]	IC50 [7] [µM]
CCCn1cc(-c2ccnc(Nc3cccc(S(N)(=O)=O)c3)n2)c2nc(Cl)cc(C)c21 [SG53]	6.84	> 10	> 10	0.098	0.19	2	–	–	–	–	–	–	–
CCCn1cc(-c2ccnc(Nc3cccc(S(N)(=O)=O)c3)n2)c2nc(Cl)cc(C)c21 [Compound 42, 3-(4-(5-Chloro-7-methyl-1-propyl-1H-pyrrolo[3,2-b]pyridin-3-yl)pyrimidin-2-ylamino)benzenesulfonamide]	–	–	–	–	–	–	6.84	> 10	> 10	0.098	0.19	2	4.06
CCCn1cc(-c2ccnc(Nc3ccc(C)c(S(=O)(=O)N4CCOCC4)c3)n2)c2ccncc21 [SG52]	0.07	0.03	0.025	1.65	1	0.22	–	–	–	–	–	–	–
CCCn1cc(-c2ccnc(Nc3ccc(C)c(S(=O)(=O)N4CCOCC4)c3)n2)c2ccncc21 [Compound 102, N-(4-Methyl-3-(morpholinosulfonyl)phenyl)-4-(1-propyl-1H-pyrrolo[2,3-c]pyridin-3-yl)pyrimidin-2-amine]	–	–	–	–	–	–	0.07	0.03	0.025	1.65	3.42	0.22	1.13
CCCn1cc(-c2ccnc(Nc3ccc(C)c(S(=O)(=O)N4CCOCC4)c3)n2)c2cccnc21 [Compound 24, N-(4-Methyl-3-(morpholinosulfonyl)phenyl)-4-(1-propyl-1H-pyrrolo[2,3-b]pyridin-3-yl)pyrimidin-2-amine]	–	–	–	–	–	–	5.19	4.58	8.9	9.44	≥ 10	1.41	5.02
CCn1cc(-c2ccnc(Nc3cccc(C#N)c3)n2)c2cccnc21 [Compound 20, 3-(4-(1-Ethyl-1H-pyrrolo[2,3-b]pyridin-3-yl)pyrimidin-2-ylamino)benzonitrile]	–	–	–	–	–	–	7.01	3.48	4.61	6.99	> 10	> 10	> 10
CCCn1cc(-c2ccnc(Nc3cccc(S(N)(=O)=O)c3)n2)c2ccnc(Cl)c21 [Compound 96, 3-(4-(7-chloro-1-propyl-1H-pyrrolo[2,3-c]pyridin-3-yl)pyrimidin-2-ylamino)benzenesulfonamide]	–	–	–	–	–	–	< 0.0001	< 0.0001	0.02	0.8	> 10	0.26	0.48
CCCn1cc(-c2ccnc(Nc3ccc(S(N)(=O)=O)cc3)n2)c2nc(Cl)cc(C)c21 [SG54]	> 10	1.67	> 10	0.62	0.32	1.03	–	–	–	–	–	–	–
